Assay results reported in PubChem BioAssay AID2060495 (Molecular Pharmacology Branch, DTP, NCI, 2025).

Tested on: 521955-158-R2-J5-PDC complex spheroid viability
Experiment: Anticancer human tumor 521955-158-R2-J5-PDC patient-derived pancreatic carcinoma cell line growth inhibition [GQUAD]
Conditions: for IC50: curve of first compound; for viability, T/C: stronger effect = lower value
In short: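 Viability of tumor cells grown as complex spheroids with endothelial and stromal cells, exposed to drug combinations. Top concentration at or near clinical Cmax (else 10 microM), diluted in half-log increments.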
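Note: spheroids exposed to agents for one week before reading.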
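Throughout, for viability, T/C: 100% = DMSO vehicle control viability.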

C#Cc1c(F)ccc2cc(O)cc(-c3ncc4c(N5CC6CCC(C5)N6)nc(OCC56CCCN5CC(F)C6)nc4c3F)c12 (configuration not stated) + Cc1cnc(CNC(=O)c2c(=O)c3ccc(N4CCCN(C)CC4)nc3n3c2sc2ccccc23)cn1
IC50 (second compound 0.0316 µM): < 31.6 nM
IC50 (second compound 0.1 µM): < 31.6 nM
IC50 (second compound 0.316 µM): < 31.6 nM
IC50 (second compound 1 µM): < 31.6 nM
IC50 (second compound 3.16 µM): < 31.6 nM
IC50 (second compound 10 µM): < 31.6 nM
viability, T/C (second compound 0.0316 µM, first compound 0.0316 µM): 35.4%
viability, T/C (second compound 0.0316 µM, first compound 0.1 µM): 31.3%
viability, T/C (second compound 0.0316 µM, first compound 0.316 µM): 26.2%
viability, T/C (second compound 0.0316 µM, first compound 1 µM): 19.1%
viability, T/C (second compound 0.0316 µM, first compound 3.16 µM): 17.9%
viability, T/C (second compound 0.0316 µM, first compound 10 µM): 13.9%
viability, T/C (second compound 0.1 µM, first compound 0.0316 µM): 24.5%
viability, T/C (second compound 0.1 µM, first compound 0.1 µM): 26.6%
viability, T/C (second compound 0.1 µM, first compound 0.316 µM): 21.4%
viability, T/C (second compound 0.1 µM, first compound 1 µM): 18.3%
viability, T/C (second compound 0.1 µM, first compound 3.16 µM): 17.2%
viability, T/C (second compound 0.1 µM, first compound 10 µM): 13.3%
viability, T/C (second compound 0.316 µM, first compound 0.0316 µM): 19.3%
viability, T/C (second compound 0.316 µM, first compound 0.1 µM): 20%
viability, T/C (second compound 0.316 µM, first compound 0.316 µM): 18.3%
viability, T/C (second compound 0.316 µM, first compound 1 µM): 16.1%
viability, T/C (second compound 0.316 µM, first compound 3.16 µM): 14.1%
viability, T/C (second compound 0.316 µM, first compound 10 µM): 11.5%
viability, T/C (second compound 1 µM, first compound 0.0316 µM): 11.3%
viability, T/C (second compound 1 µM, first compound 0.1 µM): 12.6%
viability, T/C (second compound 1 µM, first compound 0.316 µM): 10.9%
viability, T/C (second compound 1 µM, first compound 1 µM): 8.41%
viability, T/C (second compound 1 µM, first compound 3.16 µM): 9.79%
viability, T/C (second compound 1 µM, first compound 10 µM): 5.56%
viability, T/C (second compound 3.16 µM, first compound 0.0316 µM): 2.92%
viability, T/C (second compound 3.16 µM, first compound 0.1 µM): 0.7%
viability, T/C (second compound 3.16 µM, first compound 0.316 µM): 2.89%
viability, T/C (second compound 3.16 µM, first compound 1 µM): 0.31%
viability, T/C (second compound 3.16 µM, first compound 3.16 µM): 0.11%
viability, T/C (second compound 3.16 µM, first compound 10 µM): 0.08%
viability, T/C (second compound 10 µM, first compound 0.0316 µM): 0.08%
viability, T/C (second compound 10 µM, first compound 0.1 µM): 0.7%
viability, T/C (second compound 10 µM, first compound 0.316 µM): 0.19%
viability, T/C (second compound 10 µM, first compound 1 µM): 0.15%
viability, T/C (second compound 10 µM, first compound 3.16 µM): 0.18%
viability, T/C (second compound 10 µM, first compound 10 µM): 0.16%
